Test results: US8957108B2, “Use of 5,6-dimethylxanthenone-4-acetic acid as an antiviral agent” (University of Maryland, Baltimore, priority 2006, dated 2015)

Test system: C57BL/6J macrophages
[1] = DMXAA 3 h vs unstimulated wild-type cells

With `Cc1ccc2c(=O)c3cccc(CC(=O)O)c3oc2c1C` [DMXAA, 5,6-dimethylxanthenone-4-acetic acid] the “CYP1A2 Fold Change: BL/6” value was −7.0 fold, the “CYP1A2 WT/KO” value was 1.8 and the “CYP1B1 Fold Change: BL/6” value was −44.3 fold. For the same molecule, the “CYP1B1 WT/KO” value was 7.5, the “number of genes down-regulated ≧3-fold” value (3 h, vs medium-treated cells) was 26 genes and the “number of genes up-regulated ≧3-fold” value (3 h, vs medium-treated cells) was 110 genes. For the same molecule, the “2310043N10RIK Fold Change: BL/6” value [1] was −7.1 fold, the “5830484A20RIK Fold Change: BL/6” value [1] was 5.7 fold and the “ABCB1 Fold Change: BL/6” value [1] was 7.9 fold. For the same molecule, the “ABL1 Fold Change: BL/6” value [1] was −8.4 fold, the “ABLIM1 Fold Change: BL/6” value [1] was −9.7 fold and the “ACVR1B Fold Change: BL/6” value [1] was −4.5 fold. The “ADRB2 Fold Change: BL/6” value [1] was −3.2 fold, the “AFTIPHILIN Fold Change: BL/6” value [1] was 3.5 fold and the “AKAP12 Fold Change: BL/6” value [1] was 3.2 fold. For the same molecule, the “AMPD3 Fold Change: BL/6” value [1] was −3.9 fold, the “AP2A2 Fold Change: BL/6” value [1] was −10.1 fold and the “APBB1IP Fold Change: BL/6” value [1] was −3.9 fold. The “APOBEC3F Fold Change: BL/6” value [1] was 3.5 fold, the “ARHGEF3 Fold Change: BL/6” value [1] was 4.2 fold and the “ARID3A Fold Change: BL/6” value [1] was −4.1 fold. The “ARL4C Fold Change: BL/6” value [1] was 5.7 fold, the “ASF1A Fold Change: BL/6” value [1] was 3.7 fold and the “ATRX Fold Change: BL/6” value [1] was −4.2 fold. The “B3GAT3 Fold Change: BL/6” value [1] was −9.0 fold, the “BACE1 Fold Change: BL/6” value [1] was −11.5 fold and the “BAMBI Fold Change: BL/6” value [1] was 4.0 fold. The “BCL2 Fold Change: BL/6” value [1] was −7.5 fold, the “BCL2L1 Fold Change: BL/6” value [1] was −14.0 fold and the “BHLHB2 Fold Change: BL/6” value [1] was −3.8 fold. For the same molecule, the “BID Fold Change: BL/6” value [1] was 3.2 fold, the “C8ORF4 Fold Change: BL/6” value [1] was −35.4 fold and the “C9ORF26 Fold Change: BL/6” value [1] was 9.1 fold. For the same molecule, the “CCL2 Fold Change: BL/6” value [1] was 125.6 fold, the “CCL3 Fold Change: BL/6” value [1] was 5.6 fold and the “CCL4 Fold Change: BL/6” value [1] was 15.1 fold. For the same molecule, the “CCL5 Fold Change: BL/6” value [1] was 5.3 fold, the “CCL7 Fold Change: BL/6” value [1] was 9.6 fold and the “CCL13 Fold Change: BL/6” value [1] was 16.8 fold. The “CCND2 Fold Change: BL/6” value [1] was 6.4 fold, the “CCNE1 Fold Change: BL/6” value [1] was 3.2 fold and the “CCNF Fold Change: BL/6” value [1] was −10.6 fold. The “CCRN4L Fold Change: BL/6” value [1] was 5.7 fold, the “CD37 Fold Change: BL/6” value [1] was −5.2 fold and the “CD40 Fold Change: BL/6” value [1] was 10.3 fold. For the same molecule, the “CD86 Fold Change: BL/6” value [1] was 11.1 fold, the “CD274 Fold Change: BL/6” value [1] was 6.0 fold and the “CDC6 Fold Change: BL/6” value [1] was 3.8 fold. The “CDC7 Fold Change: BL/6” value [1] was −3.4 fold, the “CDC37L1 Fold Change: BL/6” value [1] was −3.8 fold and the “CDKN1A Fold Change: BL/6” value [1] was 3.1 fold. The “CEBPB Fold Change: BL/6” value [1] was −3.3 fold, the “CITED2 Fold Change: BL/6” value [1] was 6.8 fold and the “CLCA1 Fold Change: BL/6” value [1] was −4.8 fold. For the same molecule, the “CNR2 Fold Change: BL/6” value [1] was −9.1 fold, the “CREBBP Fold Change: BL/6” value [1] was −4.5 fold and the “CXCL10 Fold Change: BL/6” value [1] was 69.1 fold. The “DAXX Fold Change: BL/6” value [1] was 7.9 fold, the “DSCR1 Fold Change: BL/6” value [1] was 3.4 fold and the “FGD6 Fold Change: BL/6” value [1] was 3.0 fold. The “FGL2 Fold Change: BL/6” value [1] was 10.6 fold, the “GBP2 Fold Change: BL/6” value [1] was 4.8 fold and the “GBP4 Fold Change: BL/6” value [1] was 7.5 fold. For the same molecule, the “GBP6 Fold Change: BL/6” value [1] was 10.8 fold, the “GYPC Fold Change: BL/6” value [1] was 5.9 fold and the “IFI16 Fold Change: BL/6” value [1] was 4.3 fold. For the same molecule, the “IFI35 Fold Change: BL/6” value [1] was 3.6 fold, the “IFI203 Fold Change: BL/6” value [1] was 21.9 fold and the “IFI205 Fold Change: BL/6” value [1] was 6.4 fold. The “IFIH1 Fold Change: BL/6” value [1] was 10.1 fold, the “IFIT1 Fold Change: BL/6” value [1] was 33.5 fold and the “IFIT2 Fold Change: BL/6” value [1] was 27.1 fold. For the same molecule, the “IFIT3 Fold Change: BL/6” value [1] was 32.2 fold, the “IFNA5 Fold Change: BL/6” value [1] was 32.4 fold and the “IFNA6 Fold Change: BL/6” value [1] was 77.7 fold. For the same molecule, the “IFNB1 Fold Change: BL/6” value [1] was 194.1 fold, the “IFNG Fold Change: BL/6” value [1] was 46.5 fold and the “IGTP Fold Change: BL/6” value [1] was 13.7 fold. For the same molecule, the “IIGP1 Fold Change: BL/6” value [1] was 21.9 fold, the “IL6 Fold Change: BL/6” value [1] was 564.6 fold and the “IL12B Fold Change: BL/6” value [1] was 4.4 fold. The “IL15 Fold Change: BL/6” value [1] was 7.2 fold, the “IL15RA Fold Change: BL/6” value [1] was 14.9 fold and the “IRF1 Fold Change: BL/6” value [1] was 6.9 fold. The “IRF2 Fold Change: BL/6” value [1] was 4.1 fold, the “IRGM Fold Change: BL/6” value [1] was 6.6 fold and the “ISG20 Fold Change: BL/6” value [1] was 20.9 fold. The “KATNA1 Fold Change: BL/6” value [1] was 3.2 fold, the “LGP2 Fold Change: BL/6” value [1] was 6.4 fold and the “LHX2 Fold Change: BL/6” value [1] was 92.1 fold. The “LOC129607 Fold Change: BL/6” value [1] was 58.9 fold, the “MAFK Fold Change: BL/6” value [1] was 4.7 fold and the “MARCH5 Fold Change: BL/6” value [1] was 4.7 fold. The “MOV10 Fold Change: BL/6” value [1] was 4.2 fold, the “MX1 Fold Change: BL/6” value [1] was 191.4 fold and the “MX2 Fold Change: BL/6” value [1] was 85.3 fold. For the same molecule, the “NMI Fold Change: BL/6” value [1] was 4.5 fold, the “NP Fold Change: BL/6” value [1] was 4.1 fold and the “NT5C3 Fold Change: BL/6” value [1] was 6.4 fold. For the same molecule, the “OAS1B Fold Change: BL/6” value [1] was 12.7 fold, the “OASL Fold Change: BL/6” value [1] was 35.6 fold and the “P4HA1 Fold Change: BL/6” value [1] was 4.3 fold. For the same molecule, the “P8 Fold Change: BL/6” value [1] was 3.7 fold, the “PARP9 Fold Change: BL/6” value [1] was 4.0 fold and the “PELI1 Fold Change: BL/6” value [1] was 5.9 fold. For the same molecule, the “PGF Fold Change: BL/6” value [1] was 25.3 fold, the “PLAU Fold Change: BL/6” value [1] was 3.9 fold and the “PPP1R15A Fold Change: BL/6” value [1] was 5.3 fold. The “PTX3 Fold Change: BL/6” value [1] was 5.3 fold, the “PVRL2 Fold Change: BL/6” value [1] was 6.4 fold and the “PVRL4 Fold Change: BL/6” value [1] was 9.0 fold. The “REL Fold Change: BL/6” value [1] was 3.1 fold, the “RGC32 Fold Change: BL/6” value [1] was 8.7 fold and the “RIPK2 Fold Change: BL/6” value [1] was 3.2 fold. For the same molecule, the “RSAD2 Fold Change: BL/6” value [1] was 15.5 fold, the “SAP30 Fold Change: BL/6” value [1] was 3.9 fold and the “SAV1 Fold Change: BL/6” value [1] was 3.2 fold. The “SDC4 Fold Change: BL/6” value [1] was 3.9 fold, the “SECTM1 Fold Change: BL/6” value [1] was 17.7 fold and the “SLC7A2 Fold Change: BL/6” value [1] was 3.6 fold. The “SOAT1 Fold Change: BL/6” value [1] was 3.6 fold, the “SOCS1 Fold Change: BL/6” value [1] was 57.5 fold and the “STAT2 Fold Change: BL/6” value [1] was 3.9 fold. For the same molecule, the “TGTP Fold Change: BL/6” value [1] was 60.2 fold, the “TLK2 Fold Change: BL/6” value [1] was 4.2 fold and the “TLR3 Fold Change: BL/6” value [1] was 8.8 fold. The “TMOD3 Fold Change: BL/6” value [1] was 3.4 fold, the “TNF Fold Change: BL/6” value [1] was 6.9 fold and the “TNFRSF11B Fold Change: BL/6” value [1] was 90.5 fold. For the same molecule, the “TNFSF9 Fold Change: BL/6” value [1] was 5.1 fold, the “TOR1AIP1 Fold Change: BL/6” value [1] was 3.1 fold and the “TPST1 Fold Change: BL/6” value [1] was 6.7 fold. The “TREX1 Fold Change: BL/6” value [1] was 10.2 fold, the “TRIM21 Fold Change: BL/6” value [1] was 8.4 fold and the “TRIM25 Fold Change: BL/6” value [1] was 4.2 fold. The “TRIM34 Fold Change: BL/6” value [1] was 3.3 fold, the “USP18 Fold Change: BL/6” value [1] was 11.6 fold and the “VCAM1 Fold Change: BL/6” value [1] was 3.4 fold.
